Test results as given in patent publication US7414078B2, “Oral general anesthetics and metabolitically resistant anticonvulsants” (University of Virginia Patent Foundation, priority 2001, dated 2008).
Where two headings read alike, the source gives them in different places. Marks after values point to notes of the source that are not given here.

How the values were obtained:
[1] = tested on: Isoflurane anesthesia (minimum alveolar concentration, MAC); experiment: General anesthesia test: reduction of isoflurane MAC after i.p. compound; type: in vivo, rats; details: for anesthetic activity: rat, in vivo; for MAC value of Isoflurane at 60 mg/kg of compound / Percent Reduction in Isoflurane: rats; for MAC value of Isoflurane at 60 mg/kg of compound: 60 mg/kg i.p. in peanut oil, 1.2% isoflurane generates 100% anesthesia; for Percent Reduction in Isoflurane: 60 mg/kg i.p., relative to 1.2% isoflurane
Method: The MAC value is the minimum alveolar concentration of anesthetic at 1 atm that produces immobility in 50% of the subjects.
200 mg of each compound are tested for general anesthesia activity Testing is performed on rats to determine the percent reduction in the use of isoflurane. Inhaled anesthetics still need to be utilized to rapidly adjust the level of anesthesia. Since no single anesthetic is capable of all four requirements for anesthesia, a combination is utilized. The rats were first anesthetized with isoflurane, intubated, ventilated and then a femoral line was inserted. After the rat had been stable for 15 minutes, the initial minimum alveolar concentration (MAC) value was determined. […] After 30 minutes the second MAC value was determined post administration. Finally, after one hour the third MAC value was determined. At each MAC determination, a sample of blood was taken to determine pH, pCO2, and pO2. The results of the compounds tested to date are compared to the lead compound 17.
(§1) A classical comparison of log P and MAC reduction was investigated. A graph representing the effects of log P on the biological activity is presented in graphic form (See FIG. 1). The general anesthetic activity of compounds 20-23 and 36-43 were compared to lead compound 17 as represented in the graph (FIG. 1) and in Table 1. The partition coefficient, P, is a measure of the way the compound distributes itself between octanol and water. […] Therefore, meta-substituted derivatives 20 will be the focus of future synthesize. Bulky substituents on the alcohol were also found to have low activity.

[2] = tested on: blood pressure / hemodynamics; experiment: Hemodynamic effects during isoflurane anesthesia; type: in vivo, rats
Method: 200 mg of each compound are tested for general anesthesia activity Testing is performed on rats to determine the percent reduction in the use of isoflurane. Inhaled anesthetics still need to be utilized to rapidly adjust the level of anesthesia. Since no single anesthetic is capable of all four requirements for anesthesia, a combination is utilized. The rats were first anesthetized with isoflurane, intubated, ventilated and then a femoral line was inserted. After the rat had been stable for 15 minutes, the initial minimum alveolar concentration (MAC) value was determined. Then, 60 mg/kg of drug was sonicated in 3 mL of peanut oil and injected (i.p.). After 30 minutes the second MAC value was determined post administration. Finally, after one hour the third MAC value was determined. At each MAC determination, a sample of blood was taken to determine pH, pCO2, and pO2. The results of the compounds tested to date are compared to the lead compound 17.

[3] = tested on: seizures induced by maximal electroshock (MES); experiment: Maximal electroshock (MES) test, mice i.p. (NIH); type: in vivo; details: for MES, animals protected/animals tested: mice i.p.; for MES, mice protected: phase I i.p. mice
Method: (§2) 300 mg of each compound was synthesized and sent to the National institute of Health's Anticonvulsant Screening Project of the Antiepileptic Drug Discovery Program. NIH performs anticonvulsant testing (oral and intraperitoneal, i.p.) on both mice and rats in phase I trials. The grand mal model is conducted with a maximal electroshock (MES) test, where corneal electrode implants are primed with a drop of electrolyte solution and an electrical stimulus is delivered for 0.2 second. The model examines the compounds' ability to stop the spread of seizures. The petite mal model is conducted with a subcutaneous pentylenetetrazol seizure threshold (scMet) test. The animals are injected with a convulsant dose of pentylenetetrazol at the peak effect time of the compound. This model measures the compounds' threshold for seizures. A toxicity test (TOX) is performed where the animals walk on a spinning rod for varying lengths of time to check for the loss of righting reflex or other toxic effects.

[4] = tested on: pentylenetetrazol-induced seizures (scMet); experiment: Subcutaneous pentylenetetrazol seizure threshold (scMet) test, mice i.p. (NIH); type: in vivo; details: for SCMET, animals protected/animals tested: mice i.p.
Method: as §2

[5] = tested on: loss of righting reflex or other toxic effects on spinning rod; experiment: Toxicity test (TOX), spinning rod, mice i.p. (NIH); type: in vivo; details: for TOX, animals affected/animals tested: mice i.p.
Method: as §2

[6] = tested on: toxicity, lethal dose; experiment: Toxicity / lethal dose noted with general anesthetic activity comparison; type: in vivo; details: for lethal dose: in vivo; for toxicity: same dosage = 300 mg/kg
Description: as §1

[7] = tested on: seizures induced by maximal electroshock (MES); experiment: Maximal electroshock (MES) test, rat oral (NIH); type: in vivo, rats; details: 30 mg/kg; for MES, animals protected/animals tested: rat oral
Method: as §2

[8] = tested on: loss of righting reflex or other toxic effects on spinning rod; experiment: Toxicity test (TOX), spinning rod, rat oral (NIH); type: in vivo, rats; details: 30 mg/kg
Method: as §2

[9] = tested on: seizures; details: cited from earlier work; for anticonvulsant activity: tested in the 1950's
[10] = tested on: blood dyscrasias, rash; details: 1950's findings; cited from earlier work
[11] = tested on: rats; experiment: Anticonvulsant testing of compound 17 in rats (oral ED50, toxicity, surgical anesthesia); type: in vivo
Description: In addition increased halogen size and saturation at the position 3 carbon also increase anesthetic activity. A hydrogen bond donor is also important at the position 2 carbon, but bulk is not well tolerated.

[12] = rats, 60 mg/kg i.p., isoflurane anesthesia
[13] = 300 mg/kg, 0.5 hours, footnotes: loss of righting reflex (and one death for Cmp 20, 21)
[14] = 300 mg/kg, 4.0 hours, footnote c: loss of righting reflex (Cmp 20, 21)

| SMILES | anesthetic activity [1] | MAC value of Isoflurane at 60 mg/kg of compound [1] [%] | Percent Reduction in Isoflurane [1] [%] | Hemodynamic Effects [2, 12] | MES, animals protected/animals tested ([3]; 30 mg/kg, 0.5 hours) | MES, animals protected/animals tested ([3]; 30 mg/kg, 4.0 hours) | MES, animals protected/animals tested ([3]; 100 mg/kg, 0.5 hours) | MES, animals protected/animals tested ([3]; 100 mg/kg, 4.0 hours) | SCMET, animals protected/animals tested ([4]; 30 mg/kg, 0.5 hours) | SCMET, animals protected/animals tested ([4]; 30 mg/kg, 4.0 hours) | SCMET, animals protected/animals tested ([4]; 100 mg/kg, 0.5 hours) | SCMET, animals protected/animals tested ([4]; 100 mg/kg, 4.0 hours) | TOX, animals affected/animals tested ([5]; 30 mg/kg, 0.5 hours) | TOX, animals affected/animals tested ([5]; 30 mg/kg, 4.0 hours) | TOX, animals affected/animals tested ([5]; 100 mg/kg, 0.5 hours) | TOX, animals affected/animals tested ([5]; 100 mg/kg, 4.0 hours) | TOX, animals affected/animals tested [5, 13] | TOX, animals affected/animals tested [5, 14] | toxicity [6] | further results |
| --- | --- | --- | --- | --- | --- | --- | --- | --- | --- | --- | --- | --- | --- | --- | --- | --- | --- | --- | --- | --- |
| NC(=O)C(O)(c1cccc(F)c1)C(F)(F)F (racemic) [Compound 20] | high activity | 0.70 | 42 | lowers blood | 0/1^a | 0/1 | 3/3 | 3/3 | 2/5 | 0/1 | 1/1 | 1/1 | 0/4 | 0/2 | 6/8 | 0/4 | 4/4^b | 1/1^c | very toxic | MES, animals protected/animals tested ([3]; 300 mg/kg, 0.5 hours): 0/0; MES, animals protected/animals tested ([3]; 300 mg/kg, 4.0 hours): 1/1; lethal dose [6]: 300 mg/kg |
| NC(=O)C(O)(c1ccc(Cl)cc1)C(F)(F)F (racemic) [Compound 21] | very active | 0.65 | 46 | none | 0/1 | 0/1 | 0/3 | 1/3 | 0/1 | 0/1 | 4/4 | 1/1 | 0/4 | 0/2 | 6/8 | 3/4 | 4/4^b | 1/1^c | toxic at the same dosage | SCMET, animals protected/animals tested ([4]; 300 mg/kg, 0.5 hours): 0/0; SCMET, animals protected/animals tested ([4]; 300 mg/kg, 4.0 hours): 1/1; MES, animals protected/animals tested ([7]; 0.25 hrs.): 1/4; MES, animals protected/animals tested ([7]; 0.5 hrs.): 1/4; MES, animals protected/animals tested ([7]; 1.0 hrs.): 1/4; MES, animals protected/animals tested ([7]; 2.0 hrs.): 1/4; MES, animals protected/animals tested ([7]; 4.0 hrs.): 1/4; TOX, animals affected/animals tested ([8]; 0.25 hrs.): 0/4; TOX, animals affected/animals tested ([8]; 0.5 hrs.): 0/4; TOX, animals affected/animals tested ([8]; 1.0 hrs.): 0/4; TOX, animals affected/animals tested ([8]; 2.0 hrs.): 0/4; TOX, animals affected/animals tested ([8]; 4.0 hrs.): 0/4 |
| CC(O)(C(N)=O)c1ccccc1 (racemic) [Themisone, α-hydroxy-α-methylbenzeneacetamide] | no anesthetic activity | – | – | – | – | – | – | – | – | – | – | – | – | – | – | – | – | – | – | mice protected against seizures ([9]; racemic mixture, 250 mg/kg): 4 out of 4; anticonvulsant activity [9]: very potent anticonvulsant; anticonvulsant activity ([9]; listed as atrolactamide (themisone)): anticonvulsant activity; toxicity [10]: toxic (blood dyscrasias, rash) |
| NC(=O)C(O)(c1ccccc1)C(F)(F)F (stereo not drawn) [Compound 17, 3,3,3-Trifluoro-2-hydroxy-2-phenyl-propionamide] | – | 0.65 | 46 | – | – | – | – | – | – | – | – | – | – | – | – | – | – | – | – | lowering of minimum alveolar concentration (MAC) value of isoflurane ([1]; isoflurane 1.2% in O2, dose not stated): sixty; Hemodynamic Effects ([2]; rat, in vivo): no hemodynamic effects; Hemodynamic Effects ([2]; rat, in vivo, ip, 60 mg/kg): none; ED50 ([11]; Rattus norvegicus, rats, oral, read-out: anesthetic activity, oral ED50): 9 mg/kg; toxicity at dose ([11]; rats, oral): 300 mg/kg; stage of anesthesia exhibited by animals ([11]; third stage: general loss of spinal reflexes and muscle tone): surgical anesthesia |
| O=C1Nc2ccccc2C1(O)C(F)(F)F (stereo not drawn) [Compound 22] | – | 1.05 | 12.5 | none | – | – | – | – | – | – | – | – | – | – | – | – | – | – | – | – |
| CN1C(=O)C(O)(C(F)(F)F)c2ccccc21 (stereo not drawn) [Compound 23] | – | 0.95 | 20.8 | none | 0/1 | 0/1 | 3/3 | 0/3 | 1/5 | 0/1 | 0/1 | 0/1 | 0/4 | 0/2 | 1/8 | 0/4 | 4/4^c | 1/2 | – | MES, animals protected/animals tested ([3]; 300 mg/kg, 0.5 hours): 1/1; MES, animals protected/animals tested ([3]; 300 mg/kg, 4.0 hours): 1/1; SCMET, animals protected/animals tested ([4]; 300 mg/kg, 0.5 hours): 1/1; SCMET, animals protected/animals tested ([4]; 300 mg/kg, 4.0 hours): 1/1; MES, animals protected/animals tested ([7]; 0.25 hrs.): 2/4; MES, animals protected/animals tested ([7]; 0.5 hrs.): 1/4; MES, animals protected/animals tested ([7]; 1.0 hrs.): 2/4; MES, animals protected/animals tested ([7]; 2.0 hrs.): 2/4; MES, animals protected/animals tested ([7]; 4.0 hrs.): 2/4; TOX, animals affected/animals tested ([8]; 0.25 hrs.): 0/4; TOX, animals affected/animals tested ([8]; 0.5 hrs.): 0/4; TOX, animals affected/animals tested ([8]; 1.0 hrs.): 0/4; TOX, animals affected/animals tested ([8]; 2.0 hrs.): 0/4; TOX, animals affected/animals tested ([8]; 4.0 hrs.): 0/4 |
| NC(=O)C(O)(c1ccc(F)cc1)C(F)(F)F (stereo not drawn) [Compound 39, 3,3,3-Trifluoro-2-hydroxy-2-(4-fluoro-phenyl)-propionamide] | very active | – | – | – | – | – | – | – | – | – | – | – | – | – | – | – | – | – | toxic at the same dosage | animals with a 100% reduction in Isoflurane MAC ([1]; 300 mg/kg): 3 out of 4; MES, mice protected ([3]; 100 mg/kg, duration of 0.5 hours): 5 out of 5; MES, mice protected ([3]; 100 mg/kg, duration of 1 hour): 2 out of 3; activity as an anticonvulsant in scMET assay ([4]; species and dose not stated): demonstrated activity; Neurotoxicity, mice unable to grasp rod ([5]; mice, 100 mg/kg, duration of 0.5 hours): seven of eight; MES, rats protected ([7]; phase I oral rat, duration of 2 hours): 4 out of 4 |
| NC(=O)C(O)(c1ccccc1)C(F)(F)Cl (stereo not drawn) [Compound 42] | high activity | – | – | – | – | – | – | – | – | – | – | – | – | – | – | – | – | – | very toxic | lethal dose [6]: 300 mg/kg |
